Experimental data published in ChEMBL document CHEMBL1770127, “2-(2-Aminothiazol-4-yl)pyrrolidine-based tartrate diamides as potent, selective and orally bioavailable TACE inhibitors” (Bioorg Med Chem Lett, 2011).

Experiments:
[1] = biological target: T1, Disintegrin and metalloproteinase domain-containing protein 17 (Homo sapiens, UniProt P78536); assay: Inhibition of TACE
[2] = AUC in Sprague-Dawley rat at 10 mg/kg, po measured within 6 hrs after post-dosing by LC/MS/MS analysis; type: ADME, organism-based; design: time < 6 hr, dose 10 mg/kg, route oral; conditions: plasma
[3] = biological target: T1, Disintegrin and metalloproteinase domain-containing protein 17; assay: Inhibition of TACE by cell based assay
[4] = Plasma concentration in Sprague-Dawley rat at 10 mg/kg, po measured after 6 hrs by LC/MS/MS analysis; type: ADME, organism-based; design: dose 10 mg/kg, route oral

T1 sequence (P78536 whole entry, the tested form may be a part): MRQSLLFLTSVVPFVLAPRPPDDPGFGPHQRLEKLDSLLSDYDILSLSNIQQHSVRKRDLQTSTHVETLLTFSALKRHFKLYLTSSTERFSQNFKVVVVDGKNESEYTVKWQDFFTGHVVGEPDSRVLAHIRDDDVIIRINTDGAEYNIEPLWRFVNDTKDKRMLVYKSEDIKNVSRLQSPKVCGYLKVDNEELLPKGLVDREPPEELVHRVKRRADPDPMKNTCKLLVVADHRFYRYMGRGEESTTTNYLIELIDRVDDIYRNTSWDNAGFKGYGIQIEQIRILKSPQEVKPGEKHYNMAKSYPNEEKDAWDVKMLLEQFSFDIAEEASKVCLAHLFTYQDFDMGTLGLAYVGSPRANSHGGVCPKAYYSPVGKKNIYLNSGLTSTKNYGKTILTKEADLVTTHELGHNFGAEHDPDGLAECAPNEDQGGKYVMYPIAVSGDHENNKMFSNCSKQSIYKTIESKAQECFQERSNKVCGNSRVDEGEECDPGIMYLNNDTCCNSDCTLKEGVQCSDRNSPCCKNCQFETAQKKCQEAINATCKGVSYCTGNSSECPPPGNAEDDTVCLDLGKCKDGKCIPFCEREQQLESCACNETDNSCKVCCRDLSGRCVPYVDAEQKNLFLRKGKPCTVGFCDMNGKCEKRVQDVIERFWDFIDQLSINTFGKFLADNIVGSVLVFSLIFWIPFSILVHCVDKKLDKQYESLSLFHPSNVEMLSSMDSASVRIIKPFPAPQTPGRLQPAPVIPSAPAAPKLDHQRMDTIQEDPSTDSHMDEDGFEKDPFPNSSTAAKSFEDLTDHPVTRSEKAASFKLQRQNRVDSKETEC

## CNc1nc([C@H]2C=CCN2C(=O)[C@H](O)[C@@H](O)C(=O)N[C@H](C)c2ccc(-n3cccn3)cc2)cs1
[1]
  Ki: 0.6 nM
[2]
  AUC at 6 h: 1.81 µM·h
[3]
  IC50: 1340 nM

## C[C@@H](NC(=O)[C@H](O)[C@@H](O)C(=O)N1CCCCC1c1ccc(Cl)cc1)c1ccc(-n2cccn2)cc1 (mixture of isomers)
[1]
  Ki: 22 nM

## CCNc1nc([C@H]2c3cnc(N)nc3CN2C(=O)[C@H](O)[C@@H](O)C(=O)N[C@H](C)c2ccc(-n3cccn3)cc2)cs1
[1]
  Ki: 0.5 nM
[3]
  IC50: 257 nM

## C[C@@H](NC(=O)[C@H](O)[C@@H](O)C(=O)N1CCC[C@@H]1c1cc[nH]n1)c1ccc(-n2cccn2)cc1
[1]
  Ki: 5 nM
[2]
  AUC at 6 h: 0.578 µM·h

## CNc1nc([C@H]2c3ccc(F)cc3CN2C(=O)[C@H](O)[C@@H](O)C(=O)N[C@H](C)c2ccc(-n3cccn3)cc2)cs1
[1]
  Ki: 2 nM
[3]
  IC50: 288 nM

## CNc1nc(C2(C)CCCN2C(=O)[C@H](O)[C@@H](O)C(=O)N[C@H](C)c2ccc(-n3cccn3)cc2)cs1 (mixture of isomers)
[1]
  Ki: 9 nM
[2]
  AUC at 6 h: 2.44 µM·h
[3]
  IC50: 13800 nM

## COc1cc2c(cc1OC)[C@H](c1ccccc1)CN(C(=O)[C@H](O)[C@@H](O)C(=O)N[C@H](C)c1ccc(-n3cccn3)cc1)CC2
[1]
  Ki: 38 nM

## C[C@@H](NC(=O)[C@H](O)[C@@H](O)C(=O)N1CCC[C@@H]1c1csc(N(C)C)n1)c1ccc(-n2cccn2)cc1
[1]
  Ki: 65 nM

## C[C@@H](NC(=O)[C@H](O)[C@@H](O)C(=O)N1C[C@H](O)CC1c1cccc(Cl)c1)c1ccc(-n2cccn2)cc1 (mixture of isomers)
[1]
  Ki: 7.6 nM
[2]
  AUC at 6 h: 3.91 µM·h

## C[C@@H](NC(=O)[C@H](O)[C@@H](O)C(=O)N1CCC[C@@H]1c1csc(Nc2cccnc2)n1)c1ccc(-n2cccn2)cc1
[1]
  Ki: 2 nM
[3]
  IC50: 5550 nM

## CC(C)Nc1nc([C@H]2CCCN2C(=O)[C@H](O)[C@@H](O)C(=O)N[C@H](C)c2ccc(-n3cccn3)cc2)cs1
[1]
  Ki: 17 nM
[2]
  AUC at 6 h: 115 µM·h
[4]
  concentration at 6 h: 12.3 µM
[3]
  IC50: 6680 nM

## CNc1nc([C@H]2CCCN2C(=O)[C@H](O)[C@@H](O)C(=O)N[C@H](C)c2ccc(-n3cccn3)cc2)c(C#N)s1
[1]
  Ki: 2 nM
[2]
  AUC at 6 h: 0.154 µM·h
[3]
  IC50: 3040 nM

## CNc1nc([C@H]2C[C@H]3C[C@H]3N2C(=O)[C@H](O)[C@@H](O)C(=O)N[C@H](C)c2ccc(-n3cccn3)cc2)cs1
[1]
  Ki: 1 nM
[2]
  AUC at 6 h: 0.925 µM·h
[3]
  IC50: 707 nM

## CNc1nc([C@H]2C[C@@H]3C[C@@H]3N2C(=O)[C@H](O)[C@@H](O)C(=O)N[C@H](C)c2ccc(-n3cccn3)cc2)cs1
[1]
  Ki: 531 nM

## CNc1nc([C@H]2CCCN2C(=O)[C@H](O)[C@@H](O)C(=O)N[C@H](C)c2ccc(-n3cccn3)cc2)c(S(C)(=O)=O)s1
[3]
  IC50: 720 nM

## C[C@@H](NC(=O)[C@H](O)[C@@H](O)C(=O)N1CCC[C@@H]1c1csc(Nc2ccccc2F)n1)c1ccc(-n2cccn2)cc1
[1]
  Ki: 1 nM
[2]
  AUC at 6 h: 0.13 µM·h
[3]
  IC50: 1140 nM

## CNc1nc([C@H]2CCCN2C(=O)[C@H](O)[C@@H](O)C(=O)N[C@H](C)c2ccc(-n3cccn3)cc2)c(C)s1
[1]
  Ki: 2 nM
[2]
  AUC at 6 h: 5.44 µM·h
[3]
  IC50: 2220 nM

## CNc1nc([C@H]2c3cc(F)ccc3CN2C(=O)[C@H](O)[C@@H](O)C(=O)N[C@H](C)c2ccc(-n3cccn3)cc2)cs1
[1]
  Ki: 16 nM
[2]
  AUC at 6 h: 0.237 µM·h
[3]
  IC50: 384 nM

## Cc1nc([C@H]2CCCN2C(=O)[C@H](O)[C@@H](O)C(=O)N[C@H](C)c2ccc(-n3cccn3)cc2)cs1
[1]
  Ki: 10 nM

## CNc1nc([C@H]2CC(F)(F)CN2C(=O)[C@H](O)[C@@H](O)C(=O)N[C@H](C)c2ccc(-n3cccn3)cc2)cs1
[1]
  Ki: 4 nM
[2]
  AUC at 6 h: 1.42 µM·h
[3]
  IC50: 2770 nM

## C[C@@H](NC(=O)[C@H](O)[C@@H](O)C(=O)N1CCCCC1c1ccccc1)c1ccc(-n2cccn2)cc1 (mixture of isomers)
[1]
  Ki: 14 nM

## COc1cc2c(cc1OC)C(c1ccccc1)N(C(=O)[C@H](O)[C@@H](O)C(=O)N[C@H](C)c1ccc(-n3cccn3)cc1)CC2 (mixture of isomers)
[1]
  Ki: 0.9 nM
[2]
  AUC at 6 h: 1.24 µM·h

## CCCNc1nc([C@H]2CCCN2C(=O)[C@H](O)[C@@H](O)C(=O)N[C@H](C)c2ccc(-n3cccn3)cc2)cs1
[1]
  Ki: 4 nM
[2]
  AUC at 6 h: 48.3 µM·h
[4]
  concentration at 6 h: 5.4 µM
[3]
  IC50: 4480 nM

## C[C@@H](NC(=O)[C@H](O)[C@@H](O)C(=O)N1CCC[C@@H]1c1csc(N)n1)c1ccc(-n2cccn2)cc1
[1]
  Ki: 6 nM
[2]
  AUC at 6 h: 2.28 µM·h
[4]
  concentration at 6 h: 0.247 µM
[3]
  IC50: 4290 nM

## C[C@@H](NC(=O)[C@H](O)[C@@H](O)C(=O)N1CCC[C@@H]1c1ccn(C)n1)c1ccc(-n2cccn2)cc1
[1]
  Ki: 4 nM
[2]
  AUC at 6 h: 2.92 µM·h
[4]
  concentration at 6 h: 0.086 µM

## CCNc1nc([C@H]2CCCN2C(=O)[C@H](O)[C@@H](O)C(=O)N[C@H](C)c2ccc(-n3cccn3)cc2)cs1
[1]
  Ki: 7 nM
[2]
  AUC at 6 h: 52 µM·h
[4]
  concentration at 6 h: 5.97 µM
[3]
  IC50: 5110 nM

## C[C@@H](NC(=O)[C@H](O)[C@@H](O)C(=O)N1CC[C@H](O)C1c1cccc(Cl)c1)c1ccc(-n2cccn2)cc1 (mixture of isomers)
[1]
  Ki: 6.7 nM
[2]
  AUC at 6 h: 4.76 µM·h

## C[C@@H](NC(=O)[C@H](O)[C@@H](O)C(=O)N1CCC[C@@H]1c1csc(NC2CCC2)n1)c1ccc(-n2cccn2)cc1
[1]
  Ki: 4 nM
[2]
  AUC at 6 h: 31.4 µM·h
[4]
  concentration at 6 h: 3.54 µM
[3]
  IC50: 2150 nM

## C[C@@H](NC(=O)[C@H](O)[C@@H](O)C(=O)N1CC=C[C@@H]1c1cccc(Cl)c1)c1ccc(-n2cccn2)cc1
[1]
  Ki: 0.5 nM
[2]
  AUC at 6 h: 0.461 µM·h

## CCNc1nc([C@H]2C[C@@H](C)CN2C(=O)[C@H](O)[C@@H](O)C(=O)N[C@H](C)c2ccc(-n3cccn3)cc2)cs1
[1]
  Ki: 6 nM
[2]
  AUC at 6 h: 5.62 µM·h
[3]
  IC50: 4040 nM

## C[C@@H](NC(=O)[C@H](O)[C@@H](O)C(=O)N1CCC[C@@H]1c1csc(N2CCCCC2)n1)c1ccc(-n2cccn2)cc1
[1]
  Ki: 39 nM
[2]
  AUC at 6 h: 1.96 µM·h

## C[C@@H](NC(=O)[C@H](O)[C@@H](O)C(=O)N1CCCCC1c1cccc(Cl)c1)c1ccc(-n2cccn2)cc1 (mixture of isomers)
[1]
  Ki: 87 nM

## CNc1nc([C@H]2CCCN2C(=O)[C@H](O)[C@@H](O)C(=O)N[C@H](C)c2ccc(-n3cccn3)cc2)c(-c2ccc(F)cc2)s1
[1]
  Ki: 1 nM
[3]
  IC50: 3240 nM

## C[C@@H](NC(=O)[C@H](O)[C@@H](O)C(=O)N1CCC[C@]1(C)c1cccc(Cl)c1)c1ccc(-n2cccn2)cc1
[1]
  Ki: 0.4 nM
[2]
  AUC at 6 h: 1.47 µM·h

## CNc1nc([C@H]2CCCN2C(=O)[C@H](O)[C@@H](O)C(=O)N[C@H](C)c2ccc(-n3cccn3)cc2)c(C2CC2)s1
[1]
  Ki: 2 nM
[2]
  AUC at 6 h: 11.4 µM·h
[3]
  IC50: 2570 nM

## COc1cc2c(cc1OC)[C@H](c1ccc(Cl)cc1)N(C(=O)[C@H](O)[C@@H](O)C(=O)N[C@H](C)c1ccc(-n3cccn3)cc1)CC2
[1]
  Ki: 2.6 nM

## C[C@@H](NC(=O)[C@H](O)[C@@H](O)C(=O)N1CCC[C@@H]1c1nccs1)c1ccc(-n2cccn2)cc1
[1]
  Ki: 10 nM

## CNc1nc([C@H]2CCCN2C(=O)[C@H](O)[C@@H](O)C(=O)N[C@H](C)c2ccc(-n3cccn3)cc2)cs1
[1]
  Ki: 7 nM
[2]
  AUC at 6 h: 30.7 µM·h
[4]
  concentration at 6 h: 2.54 µM
[3]
  IC50: 5800 nM
